Experimental findings from PubChem BioAssay AID1745844 (Carcinogenic Potency Database (CPDB), 2022) are described below.

The data set relates to rodent lifetime carcinogenesis bioassay, tumor incidence TD50. Briefly: carcinogenic potency in animals, long-term in vivo studies, CPDB compilation (AID 1745844).

Calls of active or inactive are those of the source. The rule behind the calls is not given here.

`CCCC(Cl)CCCC(Cl)CCC(Cl)CCC(Cl)CCC(Cl)CCCC(Cl)CCC` (stereo unspecified): the TD50 (in general, the 50% point of the dose-response relation for the toxic effect studied) is 347 mg/kg/day (mouse, strain B6C3F1, females, by gavage, site: Harderian gland, lesion: adenoma, NOS, dosed 103 weeks, study length 104 weeks); 86.8 mg/kg/day (mouse, strain B6C3F1, females, by gavage, site: liver + thyroid gland, lesion: hepatocellular adenoma + hepatocellular carcinoma + follicular-cell adenoma + follicular-cell carcinoma, dosed 103 weeks, study length 104 weeks); 1.22e+06 mg/kg/day (mouse, strain B6C3F1, females, by gavage, site: lung, lesion: alveolar/bronchiolar adenoma + alveolar/bronchiolar carcinoma, dosed 103 weeks, study length 104 weeks); 599 mg/kg/day (mouse, strain B6C3F1, females, by gavage, site: multiple organs, lesion: malignant lymphoma, lymphocytic type, dosed 103 weeks, study length 104 weeks); 307 mg/kg/day (mouse, strain B6C3F1, females, by gavage, site: thyroid gland, lesion: follicular-cell adenoma + follicular-cell carcinoma, dosed 103 weeks, study length 104 weeks); 372 mg/kg/day (mouse, strain B6C3F1, females, by gavage, site: thyroid gland, lesion: follicular-cell adenoma, dosed 103 weeks, study length 104 weeks). In addition, the TD50 (mouse, strain B6C3F1, males, by gavage, site: liver + mesenteric lymph node + multiple organs + small intestine + spleen, lesion: malignant lymphoma, NOS + malignant lymphoma, mixed type + malignant lymphoma, lymphocytic type + malignant lymphoma, histiocy, dosed 103 weeks, study length 104 weeks) is 6540 mg/kg/day; the TD50 (mouse, strain B6C3F1, males, by gavage, site: liver, lesion: hepatocellular adenoma + hepatocellular carcinoma, dosed 103 weeks, study length 104 weeks) is 143 mg/kg/day; the TD50 (mouse, strain B6C3F1, males, by gavage, site: liver, lesion: hepatocellular adenoma, dosed 103 weeks, study length 104 weeks) was 157 mg/kg/day; the TD50 (mouse, strain B6C3F1, males, by gavage, site: lung, lesion: alveolar/bronchiolar carcinoma, dosed 103 weeks, study length 104 weeks) stood at 606 mg/kg/day; the TD50 (mouse, strain B6C3F1, males, by gavage, site: mesenteric lymph node + multiple organs + small intestine + spleen, lesion: malignant lymphoma, mixed type, dosed 103 weeks, study length 104 weeks) is 12100 mg/kg/day; the TD50 (mouse, strain B6C3F1, males, by gavage, site: mesenteric lymph node + multiple organs, lesion: malignant lymphoma, lymphocytic type, dosed 103 weeks, study length 104 weeks) was 22900 mg/kg/day. The TD50 is 43200 mg/kg/day (mouse, strain B6C3F1, males, by gavage, site: multiple organs, lesion: malignant lymphoma, histiocytic type, dosed 103 weeks, study length 104 weeks); 44000 mg/kg/day (mouse, strain B6C3F1, males, by gavage, site: thyroid gland, lesion: follicular-cell carcinoma, dosed 103 weeks, study length 104 weeks); 2350 mg/kg/day (rat, strain Fischer 344, females, by gavage, site: adrenal medulla, lesion: pheochromocytoma + pheochromocytoma, malignant, dosed 103 weeks, study length 105 weeks); 1100 mg/kg/day (rat, strain Fischer 344, females, by gavage, site: any site (literature study), lesion: several types, types named in the paper, dosed 104 weeks, study length 105 weeks); 583 mg/kg/day (rat, strain Fischer 344, females, by gavage, site: liver + thyroid gland, lesion: hepatocellular carcinoma + neoplastic nodule + follicular-cell adenoma + follicular-cell carcinoma, dosed 104 weeks, study length 105 weeks); 24800 mg/kg/day (rat, strain Fischer 344, females, by gavage, site: liver, lesion: hepatocellular adenoma + hepatocellular carcinoma + neoplastic nodule, dosed 103 weeks, study length 105 weeks). In addition, the TD50 (rat, strain Fischer 344, females, by gavage, site: liver, lesion: hepatocellular adenoma + hepatocellular carcinoma + neoplastic nodule, dosed 104 weeks, study length 105 weeks) came to 1140 mg/kg/day; the TD50 (rat, strain Fischer 344, females, by gavage, site: liver, lesion: hepatocellular carcinoma + neoplastic nodule, dosed 104 weeks, study length 105 weeks) was 1140 mg/kg/day; the TD50 (rat, strain Fischer 344, females, by gavage, site: liver, lesion: neoplastic nodule, dosed 104 weeks, study length 105 weeks) was 1200 mg/kg/day; the TD50 (rat, strain Fischer 344, females, by gavage, site: multiple organs, lesion: mononuclear-cell leukemia, dosed 104 weeks, study length 105 weeks) came to 345 mg/kg/day; the TD50 (rat, strain Fischer 344, females, by gavage, site: pancreas, lesion: acinar-cell adenoma, dosed 104 weeks, study length 105 weeks) was 839 mg/kg/day; the TD50 (rat, strain Fischer 344, females, by gavage, site: thyroid gland, lesion: follicular-cell adenoma + follicular-cell carcinoma, dosed 104 weeks, study length 105 weeks) was 1160 mg/kg/day. For the same compound, the TD50 reads like this: (rat, strain Fischer 344, females, by gavage, site: thyroid gland, lesion: follicular-cell adenoma, dosed 104 weeks, study length 105 weeks) 736 mg/kg/day; (rat, strain Fischer 344, females, by gavage, site: thyroid gland, lesion: follicular-cell carcinoma, dosed 104 weeks, study length 105 weeks) 4060 mg/kg/day; (rat, strain Fischer 344, females, by gavage, site: uterus, lesion: endometrial stromal polyp + endometrial stromal sarcoma, dosed 104 weeks, study length 105 weeks) 394 mg/kg/day; (rat, strain Fischer 344, males, by gavage, site: adrenal gland, lesion: pheochromocytoma + pheochromocytoma, malignant, dosed 104 weeks, study length 105 weeks) 192 mg/kg/day; (rat, strain Fischer 344, males, by gavage, site: any site (literature study), lesion: several types, types named in the paper, dosed 104 weeks, study length 105 weeks) 75.7 mg/kg/day; (rat, strain Fischer 344, males, by gavage, site: kidney + liver, lesion: tubular-cell adenoma + tubular-cell adenocarcinoma + hepatocellular carcinoma + neoplastic nodule, dosed 104 weeks, study length 105 weeks) 110 mg/kg/day. In addition, the TD50 by setting is: (rat, strain Fischer 344, males, by gavage, site: kidney, lesion: tubular-cell adenoma + tubular-cell adenocarcinoma, dosed 104 weeks, study length 105 weeks) 196 mg/kg/day; (rat, strain Fischer 344, males, by gavage, site: kidney, lesion: tubular-cell adenoma, dosed 104 weeks, study length 105 weeks) 417 mg/kg/day; (rat, strain Fischer 344, males, by gavage, site: liver, lesion: hepatocellular adenoma + hepatocellular carcinoma + neoplastic nodule, dosed 103 weeks, study length 105 weeks) 14500 mg/kg/day; (rat, strain Fischer 344, males, by gavage, site: liver, lesion: hepatocellular adenoma + hepatocellular carcinoma + neoplastic nodule, dosed 104 weeks, study length 105 weeks) 123 mg/kg/day; (rat, strain Fischer 344, males, by gavage, site: liver, lesion: hepatocellular carcinoma + neoplastic nodule, dosed 104 weeks, study length 105 weeks) 123 mg/kg/day; (rat, strain Fischer 344, males, by gavage, site: liver, lesion: hepatocellular carcinoma, dosed 104 weeks, study length 105 weeks) 551 mg/kg/day. Further, the TD50 (rat, strain Fischer 344, males, by gavage, site: liver, lesion: neoplastic nodule, dosed 103 weeks, study length 105 weeks) was 14500 mg/kg/day (inactive); the TD50 (rat, strain Fischer 344, males, by gavage, site: liver, lesion: neoplastic nodule, dosed 104 weeks, study length 105 weeks) is 173 mg/kg/day; the TD50 (rat, strain Fischer 344, males, by gavage, site: mammary gland, lesion: fibroadenoma, dosed 104 weeks, study length 105 weeks) amounted to 566 mg/kg/day; the TD50 (rat, strain Fischer 344, males, by gavage, site: multiple organs + spleen, lesion: mononuclear-cell leukemia, dosed 104 weeks, study length 105 weeks) was determined as 406 mg/kg/day; the TD50 (rat, strain Fischer 344, males, by gavage, site: pancreas, lesion: acinar-cell adenoma, dosed 104 weeks, study length 105 weeks) is 150 mg/kg/day; the TD50 (rat, strain Fischer 344, males, by gavage, site: pancreas, lesion: acinar-cell carcinoma + acinar-cell adenoma, dosed 104 weeks, study length 105 weeks) was 144 mg/kg/day. For the same compound, the TD50 was determined as 17600 mg/kg/day (rat, strain Fischer 344, males, by gavage, site: pancreatic islets, lesion: islet-cell adenoma, dosed 103 weeks, study length 105 weeks); 522 mg/kg/day (rat, strain Fischer 344, males, by gavage, site: preputial gland, lesion: adenoma, NOS + carcinoma, NOS, dosed 104 weeks, study length 105 weeks); 568 mg/kg/day (rat, strain Fischer 344, males, by gavage, site: preputial gland, lesion: adenoma, NOS, dosed 104 weeks, study length 105 weeks); 332 mg/kg/day (rat, strain Fischer 344, males, by gavage, site: skin + subcutaneous tissue, lesion: fibroma, dosed 104 weeks, study length 105 weeks); 75.2 mg/kg/day (rat, strain Fischer 344, males, by gavage, site: testis, lesion: interstitial-cell tumor, dosed 104 weeks, study length 105 weeks).
As to `CS(=O)(=O)c1ccc([C@@H](O)[C@@H](CO)NC(=O)C(Cl)Cl)cc1`, the TD50 runs as follows: (rat, strain F344/DuCrj, females, in drinking water, site: any site (literature study), lesion: one or several types, types not named, dosed 104 weeks, study length 108 weeks) 43.2 mg/kg/day (inactive); (rat, strain F344/DuCrj, males, in drinking water, site: liver, lesion: hepatocellular adenoma, dosed 104 weeks, study length 108 weeks) 683 mg/kg/day (inactive). Moreover, the carcinogen call reads like this: (rat, strain F344/DuCrj, females, in drinking water, site: liver, lesion: one or several types, types not named, dosed 104 weeks, study length 108 weeks) “negative (inactive)”; (rat, strain F344/DuCrj, males, in drinking water, site: any site (literature study), lesion: one or several types, types not named, dosed 104 weeks, study length 108 weeks) “negative (inactive)”.
Turning to `O.O=S(=O)(O)O.[Cd]`, under “mouse, strain Swiss, males, by gavage, site: liver, lesion: several types, types named in the paper, dosed 78 weeks, study length 78 weeks”, the carcinogen call is “negative (inactive)”. In addition, the TD50 reads like this: (mouse, strain Swiss, males, by gavage, site: lung, lesion: several types, types named in the paper, dosed 78 weeks, study length 78 weeks) 1.78 mg/kg/day (inactive); (rat, strain C.B. hooded, males, by gavage, site: liver, lesion: liver-cell adenoma, dosed 104 weeks, study length 114 weeks) 1.17 mg/kg/day (inactive).
Consider `CCOP(=O)=O.CCOP(=O)=O.CCOP(=O)=O.[Al+3]`, for which the TD50 (rat, strain Charles River CD1, females, in feed, site: kidney/pelvis, lesion: several types, types named in the paper, dosed 104 weeks, study length 104 weeks) turned out to be 14600 mg/kg/day; the TD50 (rat, strain Charles River CD1, females, in feed, site: kidney/pelvis, lesion: transitional-cell carcinoma, dosed 104 weeks, study length 104 weeks) was found to be 17800 mg/kg/day; the TD50 (rat, strain Charles River CD1, females, in feed, site: kidney/pelvis, lesion: transitional-cell papilloma, dosed 104 weeks, study length 104 weeks) was determined as 80400 mg/kg/day; the TD50 (rat, strain Charles River CD1, females, in feed, site: urinary bladder, lesion: adenosquamous carcinoma, dosed 104 weeks, study length 104 weeks) was 110000 mg/kg/day; the TD50 (rat, strain Charles River CD1, females, in feed, site: urinary bladder, lesion: several types, types named in the paper, dosed 104 weeks, study length 104 weeks) came to 17600 mg/kg/day; the TD50 (rat, strain Charles River CD1, females, in feed, site: urinary bladder, lesion: transitional-cell carcinoma, dosed 104 weeks, study length 104 weeks) is 23900 mg/kg/day. The TD50 reads like this: (rat, strain Charles River CD1, females, in feed, site: urinary bladder, lesion: transitional-cell papilloma, dosed 104 weeks, study length 104 weeks) 452000 mg/kg/day; (rat, strain Charles River CD1, males, in feed, site: kidney/pelvis, lesion: several types, types named in the paper, dosed 104 weeks, study length 104 weeks) 36400 mg/kg/day; (rat, strain Charles River CD1, males, in feed, site: kidney/pelvis, lesion: transitional-cell papilloma, dosed 104 weeks, study length 104 weeks) 31800 mg/kg/day; (rat, strain Charles River CD1, males, in feed, site: urinary bladder, lesion: several types, types named in the paper, dosed 104 weeks, study length 104 weeks) 3660 mg/kg/day; (rat, strain Charles River CD1, males, in feed, site: urinary bladder, lesion: transitional-cell carcinoma, dosed 104 weeks, study length 104 weeks) 5000 mg/kg/day; (rat, strain Charles River CD1, males, in feed, site: urinary bladder, lesion: transitional-cell papilloma, dosed 104 weeks, study length 104 weeks) 17200 mg/kg/day.
